This passage reports IC50 and IC90 results from PubChem BioAssay AID449762 (Southern Research Specialized Biocontainment Screening …, 2010).

The term IC50 denotes the concentration needed to halve the response being measured. As a reminder, the IC90 is the concentration needed for an effect of 90%.

For the test, the system named is M. tuberculosis H37Rv growth inhibition, 7H9 media. Kind of test: M. tuberculosis growth inhibition, HTS (AID 449762).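 On all read-outs here: bacterial growth assessed after seven days of incubation.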 As to conditions: for IC90: measured here: IC90 growth inhibition.

SMILES strings stand for the structures. Results filed as inconclusive are left out.

As for `COc1ccc(/C=N/Nc2cc(N3CCCC3)nc(N3CCCC3)n2)cc1`, the IC50 is 16.3 µM and the IC90 was 25 µM.

In the case of `O=C(CCl)N1CCN2C(=O)c3ccccc3C12c1ccc(Cl)cc1` (centres undefined), the IC50 is 5.42 µM and the IC90 turned out to be 7.84 µM.

For `COc1ccc(-c2csc(NC(C)c3nc4cc(Cl)c(N5CCCCC5)cc4n3CCCO)n2)cc1` (centres undefined), the IC50 was 11.2 µM and the IC90 turned out to be 12.7 µM.

Turning to `Cc1ncc(C23CC4CC(CC(C4)C2)C3)[nH]1`, the IC50 is 49.9 µM and the IC90 amounted to 51.5 µM.

For `CCn1nc(NC(=O)c2ccncc2)c2cc3cc(C)ccc3nc21`, the IC50 is 4.47 µM and the IC90 amounted to 47.3 µM.

On to `Cc1ccc(NC(=O)C2=C(O)CCn3c2nc2ccccc23)cc1`, for which the IC50 is 1.21 µM and the IC90 amounted to 20.6 µM.

With `Cc1ccccc1-n1c(SCC(=O)N/N=C/c2c(C)nn(-c3ccccc3)c2C)nc2ccccc2c1=O`, the IC50 is 2.85 µM and the IC90 came out at 3.52 µM.

As for `O=c1oc2ccccc2c(Nc2ccccc2O)c1[N+](=O)[O-]`, the 50% inhibitory concentration (IC50) was 7.1 µM and the IC90 amounted to 14 µM.

Consider `Cc1cc(C)nc(-n2nc(C)cc2NC(=O)CN2CCC(C)CC2)n1`, for which the IC50 was 6.86 µM and the IC90 was 16.9 µM.

`CN1/C(=C\C(=O)COC(=O)c2ccc([N+](=O)[O-])o2)C(C)(C)c2ccccc21`: the IC50 was 1.04 µM and the concentration for an effect of 90% (IC90) was 3.54 µM.

Regarding `COc1ccc(/C=N/Nc2nncn2N)cc1Br`, the IC50 was 10.8 µM and the IC90 is 16.3 µM.

Regarding `C/C(=N\Nc1ccc([N+](=O)[O-])cc1)c1cccc(N)c1`, the IC50 was 62.9 µM and the IC90 was found to be 88.3 µM.

On to `O=C(Nc1cccc(-c2nc3ccccc3s2)c1)c1cc(-n2cnnc2)ccc1Cl`, for which the IC50 was 11.6 µM and the IC90 turned out to be 13.1 µM.

`CC(C)(C)OC(=O)NCCCCCc1nnc(SCc2ccc(F)cc2)o1`: the half-inhibitory concentration (IC50) is 14.2 µM and the IC90 stood at 48.2 µM.

On to `COc1ccc(N(CC(=O)Nc2ccccc2C(N)=O)S(=O)(=O)c2ccc(C)c([N+](=O)[O-])c2)cc1`, for which the IC50 is 87.7 µM and the 90% effect concentration (IC90) is > 100 µM.

For `CCOC(=O)c1cnc(Nc2nc3ccccc3o2)nc1CSC(=S)N(CC)CC`, the IC50 is 20.5 µM and the IC90 turned out to be 25.4 µM.

With `COC(=O)C(C)Oc1ccc(Cc2ncc(C(F)(F)F)cc2Cl)cc1` (centres undefined), the IC50 is 2.43 µM and the 90% effect concentration (IC90) was determined as 5.77 µM.

For the compound `COc1ccc(NC(=O)NC(C)C2CC3CCC2C3)cc1` (centres undefined), the IC50 is 23.6 µM and the IC90 is 27.1 µM.

On to `CCCOC(=O)c1ccc(-c2ccc(C=O)o2)cc1`, for which the IC50 is 0.82 µM and the IC90 was > 100 µM.

`C(=N\Nc1ncnc2sc3c(c12)CCC3)/c1cccs1`: the IC50 is 5.84 µM and the IC90 was 16.8 µM.

`Nc1nc(CN2CCN(c3ccccc3F)CC2)nc(N2CCCc3ccccc32)n1`: the 50% inhibitory concentration (IC50) was 4.99 µM and the IC90 was 14 µM.

Turning to `FC(F)(Cl)c1nnc2ccc(Cl)nn12`, the IC50 was 0.26 µM and the IC90 came to 0.86 µM.

Regarding `O=c1c(Cl)nc2cc(Cl)ccc2n1CCNc1ncc(C(F)(F)F)cc1Cl`, the IC50 was 1.3 µM and the IC90 was found to be 3.89 µM.

As to `COc1cccc(/C=N/Nc2ncnc3scc(-c4ccccc4)c23)c1O`, the IC50 is 1.57 µM and the IC90 came out at 3.35 µM.

For `Cc1ccc2nc(=O)c(NNc3ccccc3)cnc2c1`, the half-maximal inhibitory concentration (IC50) is 16.5 µM and the IC90 was > 100 µM.

With `CSCCOC(=O)COc1ccc(/C=N/NC(=O)c2c(Cl)cnn2C)cc1`, the IC50 is 9.04 µM and the IC90 stood at 22.6 µM.

As for `Cn1cnnc1SCc1ccc(-c2ccc(Br)cc2)o1`, the IC50 is 85.1 µM and the IC90 is > 100 µM.

Take `O=C(OCCN1C(=O)c2ccccc2C1=O)c1cc2ccccc2o1`: the IC50 was 12.2 µM and the IC90 was > 25 µM.

Turning to `CCCSC1=C(C#N)C(c2ccc(Cl)cc2Cl)CC(=O)N1` (centres undefined), the IC90 is > 25 µM.

Consider `COC(=O)c1ccc(C(=O)OC)c(NC(=O)CSc2cccc[n+]2[O-])c1`, for which the IC50 is 2.97 µM and the 90% effect concentration (IC90) was determined as 3.37 µM.

As for `CCCCSCCCNC(=O)c1cn(CC)c2ccc(S(=O)(=O)N3CCOCC3)cc2c1=O`, the IC50 is 23.7 µM and the IC90 came out at 44.9 µM.

`CCCn1c(Nc2nc3ccccc3n2C)nc2ccccc21`: the half-maximal inhibitory concentration (IC50) was 83 µM and the IC90 stood at 88.7 µM.

Consider `CCn1c(NC(=O)c2nn(C)cc2Br)nc2ccccc21`, for which the IC50 is 4.39 µM and the IC90 amounted to 12.7 µM.

Regarding `Nc1c(C(=O)NC2CCCCC2)nsc1C(=O)OCC(=O)NC1CCCCC1`, the IC50 was 1.87 µM and the IC90 turned out to be 6.02 µM.

Take `CC(C)OC(=O)c1ccc(NC(=S)NC(=O)c2cncc(Br)c2)cc1`: the IC50 is 52.4 µM and the IC90 was > 100 µM.

As for `Cc1onc(-c2ccccc2Cl)c1C(=O)Oc1cccc2cccnc12`, the IC50 was 2.84 µM and the IC90 turned out to be 4.24 µM.

As for `CN(CC(=O)Nc1ccc(OC(F)(F)F)cc1)C(=O)/C=C/c1cc2c(cc1[N+](=O)[O-])OCO2`, the IC50 was 30.2 µM and the IC90 was 37.9 µM.

As to `NNC(=S)NCc1ccc2c(c1)OCO2`, the IC50 was 23.8 µM and the IC90 was 26.8 µM.

Take `O=C1CCC(=O)N1CNc1ccc(Oc2ccccc2)cc1`: the IC90 was > 100 µM.

Turning to `CCCC[C@@H](CN[C@H](C)CNC)NCC1CCC(C(C)(C)C)CC1` (some centres undefined), the IC50 is 18 µM and the IC90 worked out at 22.7 µM.

As for `COc1ccc(C(=O)OCCNC(=O)c2c(Cl)nc3ccccn23)cc1`, the IC50 was 10 µM and the IC90 stood at 16.1 µM.

Regarding `COc1ccc(N=c2ssnc2Cl)cc1`, the IC50 was 38.9 µM and the 90% effect concentration (IC90) is > 100 µM.

For the compound `CSc1nc2nc3c(c(=O)n2[nH]1)CCCC3`, the IC50 is 20.5 µM and the 90% effect concentration (IC90) was > 100 µM.

For the compound `CC1Cc2cc(-c3csc(NC(=O)Cc4cccs4)n3)ccc2N1S(C)(=O)=O` (centres undefined), the IC50 was 10.6 µM and the IC90 was determined as 38 µM.

`O=C1c2ccccc2C(=O)N1Nc1ccccc1`: the IC90 is > 100 µM.

On to `CC(C)(Oc1ccc(Cl)cc1)C(=O)OCC(=O)N1CCN(c2ccccc2)CC1`, for which the IC50 was 30.5 µM and the IC90 is 98.2 µM.

`COc1ccc(OCc2cccc(C(=O)Nn3cc([N+](=O)[O-])cn3)c2)cc1`: the IC50 is 9.92 µM and the IC90 was determined as 36.5 µM.

In the case of `CC(/C=C/c1ccccc1)=N\NC(N)=S`, the IC50 was 3.84 µM and the IC90 was 9.07 µM.

On to `CCN(CC)CCN(C(=O)c1ccc(S(=O)(=O)N2CCCC2)cc1)c1nc2cc(C)cc(C)c2s1`, for which the IC50 is 10.1 µM and the IC90 stood at 13.2 µM.

Consider `Cc1ccc2[nH]c(C)c(CCNC(=O)c3cc4cc([N+](=O)[O-])ccc4oc3=O)c2c1`, for which the IC50 was 8.49 µM and the IC90 is 16.5 µM.

`CCOC(=O)c1sc(NC(=O)CN2C(=O)NC3(CC(C)CC(C)(C)C3)C2=O)cc1C` (centres undefined): the IC50 is 21.4 µM and the IC90 turned out to be 40.3 µM.

For the compound `COc1ccc(-c2cn3cc([N+](=O)[O-])ccc3n2)cc1OC`, the concentration for half-maximal inhibition (IC50) is 17.8 µM and the IC90 is > 100 µM.

Take `CCOC(=O)C1CCN(CC(O)COc2ccc(C(C)(C)CC)cc2)CC1` (centres undefined): the IC50 was 22.8 µM and the IC90 came out at 29.5 µM.

Regarding `C[CH2][Hg][S]c1ccccc1C(=O)O`, the IC50 was 0.34 µM and the IC90 was 0.81 µM.

For `CCn1c(SCC(=O)Nc2ccc3c(c2)oc2ccccc23)nnc1-c1ccc(N)cc1`, the IC90 is > 100 µM.

With `O=C(CSCc1ccc([N+](=O)[O-])cc1)N/N=C/c1ccncc1`, the IC50 is 3.47 µM and the IC90 was determined as 10.3 µM.

Consider `CCN(CC)C(=O)Oc1ccc2c(=O)c(-c3ccc(OC)cc3)coc2c1`, for which the IC50 is 28.5 µM and the IC90 is > 100 µM.

In the case of `CCOC(=O)c1ccc(NC(=O)C(C)Sc2nc(O)c(-c3ccccc3)c(=O)[nH]2)cc1` (centres undefined), the IC50 was 5.47 µM and the IC90 is 22.6 µM.

As to `Clc1ccc(CCC(Cn2ccnc2)Sc2c(Cl)cccc2Cl)cc1` (centres undefined), the half-inhibitory concentration (IC50) was 7.79 µM and the IC90 was found to be 14.3 µM.

Take `Cc1ncsc1CCOC(=O)c1ccc([N+](=O)[O-])cc1`: the IC50 was 8.11 µM and the 90% effect concentration (IC90) was > 100 µM.

`C=CCOc1ccc2c(c1)C(=NO)c1cc(OCC=C)ccc1-2`: the IC50 was 5.82 µM and the IC90 was determined as 9.27 µM.

`CCCCN(C)C(=O)Cc1c(OC)ccc2cc(Br)ccc12`: the IC50 was 19.5 µM and the IC90 was determined as 29.2 µM.

In the case of `S=C(Nc1ccc(Nc2ccccc2)cc1)Nc1ccccn1`, the IC50 was 48.7 µM and the IC90 is > 50 µM.

As for `O=C1NCC(O)=C1C=Nc1ccccc1O`, the IC50 is 5.93 µM and the IC90 is 6.49 µM.

With `C/C(=C1/C(=O)N(c2ccc([N+](=O)[O-])cc2)N=C1c1ccccc1)N(C)C`, the IC50 is 21.8 µM and the IC90 was 31.4 µM.

`CCc1ccc2nc(N3C(=O)C(O)=C(C(=O)c4ccco4)C3c3cccs3)sc2c1` (centres undefined): the IC50 was 83.2 µM and the IC90 worked out at 92.3 µM.

Regarding `COc1ccc(C)c2sc(N(CCN(C)C)C(=O)/C=C/c3cccs3)nc12`, the IC50 was 25.2 µM and the IC90 was found to be 35.9 µM.

Regarding `CCOC(=O)c1ccc(N=Cc2c(O)c3ccccc3oc2=O)cc1`, the IC50 is 66 µM and the concentration for an effect of 90% (IC90) is > 100 µM.

On to `CC(C)(C)C(=O)NC(=S)NNC(=O)c1sc2ccccc2c1Cl`, for which the IC50 was 23.8 µM and the IC90 is > 100 µM.

As for `Cc1nc(NCCc2ccccc2)c2oc3ccccc3c2n1`, the half-maximal inhibitory concentration (IC50) is 6.49 µM and the IC90 came out at 14.2 µM.

`OCC1(Cc2cccc(Cl)c2)CCCN(Cc2ccc3cc(F)ccc3n2)C1` (centres undefined): the IC50 is 45.8 µM and the IC90 is 52.1 µM.

In the case of `COC(=O)c1c(NC(=O)C(=O)N2CCCC2)sc2c1CC(C)(C)OC2`, the IC50 is 9.46 µM and the IC90 is 27.7 µM.

For `CCOC(=O)CSC1=C(C#N)C(c2ccc(C)cc2)C2=C(CCCC2=O)N1` (centres undefined), the IC50 is 43.9 µM and the IC90 is > 100 µM.

For `CC(=O)/C(=C\Nc1ccc(OCc2ccccc2)cc1)c1ccccc1`, the IC50 was 2.28 µM and the IC90 was 12.1 µM.
